Key:
[1] = molecular target: SdSTING; test: EMSA titration with […]-labeled ligand; format: binding, Stephanoeca diplocostata
[2] = molecular target: DgSTING; test: EMSA titration with […]-labeled ligand; format: binding, Diaphanoeca grandis

- Kd [1]: 1750 nM
- Kd [2]: 590 nM
Structure (SMILES): Nc1nc2c(ncn2[C@@H]2O[C@@H]3COP(=O)(O)O[C@H]4[C@@H](O)[C@H](n5cnc6c(=O)[nH]c(N)nc65)O[C@@H]4COP(=O)(O)O[C@H]3[C@H]2O)c(=O)[nH]1 [3′3′-c-di-GMP]

From publication doi:10.1101/2025.09.04.674280 (bioRxiv, 2025)
